Measured values reported in PubChem BioAssay (NCI).
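Test compounds were applied to cells in 96-well plates for 48 hours at 5 doses. GI50 = concentration required for 50% inhibition of growth. TGI: total growth inhibition.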

How the values were obtained:
Assay in all cases: NCI tumour cell line growth inhibition, 48 h
NCI-H522 lung = test system: NCI-H522 lung
NCI-H460 lung = test system: NCI-H460 lung
SR leukemia = test system: SR leukemia
SK-MEL-28 melanoma = test system: SK-MEL-28 melanoma
SK-MEL-2 melanoma = test system: SK-MEL-2 melanoma
NCI-H226 lung = test system: NCI-H226 lung
A498 renal = test system: A498 renal
NCI-H23 lung = test system: NCI-H23 lung
SF-295 CNS = test system: SF-295 CNS
OVCAR-4 ovarian = test system: OVCAR-4 ovarian
HS 578T breast = test system: HS 578T breast
COLO 205 colon = test system: COLO 205 colon
SF-268 CNS = test system: SF-268 CNS
M14 melanoma = test system: M14 melanoma
NCI/ADR-RES ovarian = test system: NCI/ADR-RES ovarian
HCT-116 colon = test system: HCT-116 colon
U251 CNS = test system: U251 CNS
CCRF-CEM leukemia = test system: CCRF-CEM leukemia
MOLT-4 leukemia = test system: MOLT-4 leukemia
UACC-257 melanoma = test system: UACC-257 melanoma
HCT-15 colon = test system: HCT-15 colon
TK-10 renal = test system: TK-10 renal
A549 NSCLC = test system: A549 NSCLC
HOP-62 NSCLC = test system: HOP-62 NSCLC
SNB-75 CNS = test system: SNB-75 CNS
HOP-92 NSCLC = test system: HOP-92 NSCLC
MCF7 breast = test system: MCF7 breast
MDA-MB-231 breast = test system: MDA-MB-231 breast
786-0 renal = test system: 786-0 renal
K-562 leukemia = test system: K-562 leukemia
T-47D breast = test system: T-47D breast
MDA-MB-435 = test system: MDA-MB-435
SF-539 CNS = test system: SF-539 CNS
PC-3 prostate = test system: PC-3 prostate
HCC-2998 colon = test system: HCC-2998 colon
SK-MEL-5 melanoma = test system: SK-MEL-5 melanoma
KM12 colon = test system: KM12 colon
OVCAR-8 ovarian = test system: OVCAR-8 ovarian
UACC-62 melanoma = test system: UACC-62 melanoma
IGROV1 ovarian = test system: IGROV1 ovarian
OVCAR-3 ovarian = test system: OVCAR-3 ovarian
HT29 colon = test system: HT29 colon
DU-145 prostate = test system: DU-145 prostate
OVCAR-5 ovarian = test system: OVCAR-5 ovarian
UO-31 renal = test system: UO-31 renal
RPMI-8226 leukemia = test system: RPMI-8226 leukemia
SK-OV-3 ovarian = test system: SK-OV-3 ovarian
SW-620 colon = test system: SW-620 colon
RXF 393 renal = test system: RXF 393 renal
SNB-19 CNS = test system: SNB-19 CNS
BT-549 breast = test system: BT-549 breast
ACHN renal = test system: ACHN renal
LOX IMVI melanoma = test system: LOX IMVI melanoma
CAKI-1 renal = test system: CAKI-1 renal
SN12C renal = test system: SN12C renal
MALME-3M melanoma = test system: MALME-3M melanoma

## COc1cc2c(cc1OC)C(CC1(O)CCCCC1)N(S(=O)(=O)c1ccc(C)cc1)CC2 (configuration not stated)
NCI-H522 lung
  GI50: > 10 µM
  TGI: > 10 µM
NCI-H460 lung
  GI50: > 10 µM
  TGI: > 10 µM
SR leukemia
  GI50: > 10 µM
  TGI: > 10 µM
SK-MEL-28 melanoma
  GI50: > 10 µM
  TGI: > 10 µM
SK-MEL-2 melanoma
  GI50: > 10 µM
  TGI: > 10 µM
NCI-H226 lung
  GI50: > 10 µM
  TGI: > 10 µM
A498 renal
  GI50: > 10 µM
  TGI: > 10 µM
NCI-H23 lung
  GI50: > 10 µM
  TGI: > 10 µM
SF-295 CNS
  GI50: > 10 µM
  TGI: > 10 µM
OVCAR-4 ovarian
  GI50: > 10 µM
  TGI: > 10 µM
HS 578T breast
  GI50: > 10 µM
  TGI: > 10 µM
COLO 205 colon
  GI50: > 10 µM
  TGI: > 10 µM
SF-268 CNS
  GI50: > 10 µM
  TGI: > 10 µM
M14 melanoma
  GI50: > 10 µM
  TGI: > 10 µM
NCI/ADR-RES ovarian
  GI50: > 10 µM
  TGI: > 10 µM
HCT-116 colon
  GI50: > 10 µM
  TGI: > 10 µM
U251 CNS
  GI50: > 10 µM
  TGI: > 10 µM
CCRF-CEM leukemia
  GI50: > 10 µM
  TGI: > 10 µM
MOLT-4 leukemia
  GI50: > 10 µM
  TGI: > 10 µM
UACC-257 melanoma
  GI50: > 10 µM
  TGI: > 10 µM
HCT-15 colon
  GI50: > 10 µM
  TGI: > 10 µM
TK-10 renal
  GI50: > 10 µM
  TGI: > 10 µM
A549 NSCLC
  GI50: > 10 µM
  TGI: > 10 µM
HOP-62 NSCLC
  GI50: > 10 µM
  TGI: > 10 µM
SNB-75 CNS
  GI50: > 10 µM
  TGI: > 10 µM
HOP-92 NSCLC
  GI50: > 10 µM
  TGI: > 10 µM
MCF7 breast
  GI50: > 10 µM
  TGI: > 10 µM
MDA-MB-231 breast
  GI50: > 10 µM
  TGI: > 10 µM
786-0 renal
  GI50: > 10 µM
  TGI: > 10 µM
K-562 leukemia
  GI50: > 10 µM
  TGI: > 10 µM
T-47D breast
  GI50: > 10 µM
  TGI: > 10 µM
MDA-MB-435
  GI50: > 10 µM
  TGI: > 10 µM
SF-539 CNS
  GI50: > 10 µM
  TGI: > 10 µM
PC-3 prostate
  GI50: > 10 µM
  TGI: > 10 µM
HCC-2998 colon
  GI50: > 10 µM
  TGI: > 10 µM
SK-MEL-5 melanoma
  GI50: > 10 µM
  TGI: > 10 µM
KM12 colon
  GI50: > 10 µM
  TGI: > 10 µM
OVCAR-8 ovarian
  GI50: > 10 µM
  TGI: > 10 µM
UACC-62 melanoma
  GI50: > 10 µM
  TGI: > 10 µM
IGROV1 ovarian
  GI50: > 10 µM
  TGI: > 10 µM
OVCAR-3 ovarian
  GI50: > 10 µM
  TGI: > 10 µM
HT29 colon
  GI50: > 10 µM
  TGI: > 10 µM
DU-145 prostate
  GI50: > 10 µM
  TGI: > 10 µM
OVCAR-5 ovarian
  GI50: > 10 µM
  TGI: > 10 µM
UO-31 renal
  GI50: > 10 µM
  TGI: > 10 µM
RPMI-8226 leukemia
  GI50: > 10 µM
  TGI: > 10 µM
SK-OV-3 ovarian
  GI50: > 10 µM
  TGI: > 10 µM
SW-620 colon
  GI50: > 10 µM
  TGI: > 10 µM
RXF 393 renal
  GI50: > 10 µM
  TGI: > 10 µM
SNB-19 CNS
  GI50: > 10 µM
  TGI: > 10 µM
BT-549 breast
  GI50: > 10 µM
  TGI: > 10 µM
ACHN renal
  GI50: > 10 µM
  TGI: > 10 µM
LOX IMVI melanoma
  GI50: > 10 µM
  TGI: > 10 µM
CAKI-1 renal
  GI50: > 10 µM
  TGI: > 10 µM
SN12C renal
  GI50: > 10 µM
  TGI: > 10 µM
MALME-3M melanoma
  GI50: > 10 µM
  TGI: > 10 µM
